Converted amounts (≈) assume the structure as drawn. Some results are limits rather than exact numbers.

One test is described as follows: Cytotoxicity against mouse EAC cells assessed as non-viable cells at 50 ug/ml after 2 hrs by trypan blue exclusion. The format is functional, Ehrlich.
Conditions: not given
On to `Nc1nc(=S)[nH]c2c1C(c1ccc(Cl)cc1Cl)C1=C(CCCC1=O)N2c1ccc(S(N)(=O)=O)cc1` (stereo not given), for which the Activity is 100%.

Regarding `N#CC1=C(NC(=S)Nc2ccccc2)N(c2ccc(S(N)(=O)=O)cc2)C2=C(C(=O)CCC2)C1c1ccc(Cl)cc1Cl` (stereo not given), the Activity came out at 55%.

Consider `N#CC1=C(NC(=S)Nc2ccc(Cl)cc2)N(c2ccc(S(N)(=O)=O)cc2)C2=C(C(=O)CCC2)C1c1ccc(Cl)cc1Cl` (stereo not given), for which the Activity came out at 100%.

On to `N=c1c2c([nH]c(=S)n1-c1ccccc1)N(c1ccc(S(N)(=O)=O)cc1)C1=C(C(=O)CCC1)C2c1ccc(Cl)cc1Cl` (stereo not given), for which the Activity was determined as 50%.

As to `N=c1c2c([nH]c(=S)n1-c1ccc(Br)cc1)N(c1ccc(S(N)(=O)=O)cc1)C1=C(C(=O)CCC1)C2c1ccc(Cl)cc1Cl` (stereo not given), the Activity is reported as 50%.

Consider `NS(=O)(=O)c1ccc(N2C3=C(C(=O)CCC3)C(c3ccc(Cl)cc3Cl)c3c2[nH]c(=S)[nH]c3=S)cc1` (stereo not given), for which the Activity is 39%.

Turning to `N#CC1=C(NC(=O)CCC(=O)O)N(c2ccc(S(N)(=O)=O)cc2)C2=C(C(=O)CCC2)C1c1ccc(Cl)cc1Cl` (stereo not given), the Activity was found to be 50%.

With `CCCCNC(=S)NC1=C(C#N)C(c2ccc(Cl)cc2Cl)C2=C(CCCC2=O)N1c1ccc(S(N)(=O)=O)cc1` (stereo not given), the Activity is 35%.

`Nc1nc(=O)[nH]c2c1C(c1ccc(Cl)cc1Cl)C1=C(CCCC1=O)N2c1ccc(S(N)(=O)=O)cc1` (stereo not given): the Activity was found to be 90%.

Consider `C=CCn1c(=S)[nH]c2c(c1=N)C(c1ccc(Cl)cc1Cl)C1=C(CCCC1=O)N2c1ccc(S(N)(=O)=O)cc1` (stereo not given), for which the Activity is reported as 50%.

A short description of a further test: Cytotoxicity against mouse EAC cells assessed as non-viable cells at 100 ug/ml after 2 hrs by trypan blue exclusion. The class given is functional, Ehrlich.
Conditions: not given
With `Nc1nc(=S)[nH]c2c1C(c1ccc(Cl)cc1Cl)C1=C(CCCC1=O)N2c1ccc(S(N)(=O)=O)cc1` (stereo not given), the Activity was 100%.

For the compound `N#CC1=C(NC(=S)Nc2ccccc2)N(c2ccc(S(N)(=O)=O)cc2)C2=C(C(=O)CCC2)C1c1ccc(Cl)cc1Cl` (stereo not given), the Activity is listed as 95%.

As for `N#CC1=C(NC(=S)Nc2ccc(Cl)cc2)N(c2ccc(S(N)(=O)=O)cc2)C2=C(C(=O)CCC2)C1c1ccc(Cl)cc1Cl` (stereo not given), the Activity stood at 100%.

With `N=c1c2c([nH]c(=S)n1-c1ccccc1)N(c1ccc(S(N)(=O)=O)cc1)C1=C(C(=O)CCC1)C2c1ccc(Cl)cc1Cl` (stereo not given), the Activity was 60%.

As for `N=c1c2c([nH]c(=S)n1-c1ccc(Br)cc1)N(c1ccc(S(N)(=O)=O)cc1)C1=C(C(=O)CCC1)C2c1ccc(Cl)cc1Cl` (stereo not given), the Activity came out at 70%.

Take `NS(=O)(=O)c1ccc(N2C3=C(C(=O)CCC3)C(c3ccc(Cl)cc3Cl)c3c2[nH]c(=S)[nH]c3=S)cc1` (stereo not given): the Activity turned out to be 57%.

As for `N#CC1=C(NC(=O)CCC(=O)O)N(c2ccc(S(N)(=O)=O)cc2)C2=C(C(=O)CCC2)C1c1ccc(Cl)cc1Cl` (stereo not given), the Activity was determined as 60%.

As to `CCCCNC(=S)NC1=C(C#N)C(c2ccc(Cl)cc2Cl)C2=C(CCCC2=O)N1c1ccc(S(N)(=O)=O)cc1` (stereo not given), the Activity came out at 40%.

Regarding `Nc1nc(=O)[nH]c2c1C(c1ccc(Cl)cc1Cl)C1=C(CCCC1=O)N2c1ccc(S(N)(=O)=O)cc1` (stereo not given), the Activity is listed as 100%.

Consider `C=CCn1c(=S)[nH]c2c(c1=N)C(c1ccc(Cl)cc1Cl)C1=C(CCCC1=O)N2c1ccc(S(N)(=O)=O)cc1` (stereo not given), for which the Activity is 75%.

Another test in a line: Cytotoxicity against mouse EAC cells assessed as non-viable cells at 10 ug/ml after 2 hrs by trypan blue exclusion. The format is functional, Ehrlich.
Conditions: not given
On to `Nc1nc(=S)[nH]c2c1C(c1ccc(Cl)cc1Cl)C1=C(CCCC1=O)N2c1ccc(S(N)(=O)=O)cc1` (stereo not given), for which the Activity came out at 30%.

For the compound `N#CC1=C(NC(=S)Nc2ccccc2)N(c2ccc(S(N)(=O)=O)cc2)C2=C(C(=O)CCC2)C1c1ccc(Cl)cc1Cl` (stereo not given), the Activity came out at 40%.

As to `N#CC1=C(NC(=S)Nc2ccc(Cl)cc2)N(c2ccc(S(N)(=O)=O)cc2)C2=C(C(=O)CCC2)C1c1ccc(Cl)cc1Cl` (stereo not given), the Activity came out at 30%.

On to `N=c1c2c([nH]c(=S)n1-c1ccccc1)N(c1ccc(S(N)(=O)=O)cc1)C1=C(C(=O)CCC1)C2c1ccc(Cl)cc1Cl` (stereo not given), for which the Activity amounted to 10%.

Regarding `N=c1c2c([nH]c(=S)n1-c1ccc(Br)cc1)N(c1ccc(S(N)(=O)=O)cc1)C1=C(C(=O)CCC1)C2c1ccc(Cl)cc1Cl` (stereo not given), the Activity is given as 30%.

As for `NS(=O)(=O)c1ccc(N2C3=C(C(=O)CCC3)C(c3ccc(Cl)cc3Cl)c3c2[nH]c(=S)[nH]c3=S)cc1` (stereo not given), the Activity came to 11%.

For the compound `N#CC1=C(NC(=O)CCC(=O)O)N(c2ccc(S(N)(=O)=O)cc2)C2=C(C(=O)CCC2)C1c1ccc(Cl)cc1Cl` (stereo not given), the Activity turned out to be 20%.

Regarding `CCCCNC(=S)NC1=C(C#N)C(c2ccc(Cl)cc2Cl)C2=C(CCCC2=O)N1c1ccc(S(N)(=O)=O)cc1` (stereo not given), the Activity came to 30%.

Take `Nc1nc(=O)[nH]c2c1C(c1ccc(Cl)cc1Cl)C1=C(CCCC1=O)N2c1ccc(S(N)(=O)=O)cc1` (stereo not given): the Activity was determined as 80%.

On to `C=CCn1c(=S)[nH]c2c(c1=N)C(c1ccc(Cl)cc1Cl)C1=C(CCCC1=O)N2c1ccc(S(N)(=O)=O)cc1` (stereo not given), for which the Activity is 30%.

Another test in a line: Cytotoxicity against mouse EAC cells assessed as non-viable cells at 25 ug/ml after 2 hrs by trypan blue exclusion. The class given is functional, Ehrlich.
Conditions: not given
Take `Nc1nc(=S)[nH]c2c1C(c1ccc(Cl)cc1Cl)C1=C(CCCC1=O)N2c1ccc(S(N)(=O)=O)cc1` (stereo not given): the Activity came out at 50%.

As to `N#CC1=C(NC(=S)Nc2ccccc2)N(c2ccc(S(N)(=O)=O)cc2)C2=C(C(=O)CCC2)C1c1ccc(Cl)cc1Cl` (stereo not given), the Activity worked out at 50%.

On to `N#CC1=C(NC(=S)Nc2ccc(Cl)cc2)N(c2ccc(S(N)(=O)=O)cc2)C2=C(C(=O)CCC2)C1c1ccc(Cl)cc1Cl` (stereo not given), for which the Activity is 60%.

Regarding `N=c1c2c([nH]c(=S)n1-c1ccccc1)N(c1ccc(S(N)(=O)=O)cc1)C1=C(C(=O)CCC1)C2c1ccc(Cl)cc1Cl` (stereo not given), the Activity was found to be 30%.

For `N=c1c2c([nH]c(=S)n1-c1ccc(Br)cc1)N(c1ccc(S(N)(=O)=O)cc1)C1=C(C(=O)CCC1)C2c1ccc(Cl)cc1Cl` (stereo not given), the Activity turned out to be 30%.

`NS(=O)(=O)c1ccc(N2C3=C(C(=O)CCC3)C(c3ccc(Cl)cc3Cl)c3c2[nH]c(=S)[nH]c3=S)cc1` (stereo not given): the Activity is listed as 30%.

Turning to `N#CC1=C(NC(=O)CCC(=O)O)N(c2ccc(S(N)(=O)=O)cc2)C2=C(C(=O)CCC2)C1c1ccc(Cl)cc1Cl` (stereo not given), the Activity worked out at 35%.

Consider `CCCCNC(=S)NC1=C(C#N)C(c2ccc(Cl)cc2Cl)C2=C(CCCC2=O)N1c1ccc(S(N)(=O)=O)cc1` (stereo not given), for which the Activity was determined as 30%.

As for `Nc1nc(=O)[nH]c2c1C(c1ccc(Cl)cc1Cl)C1=C(CCCC1=O)N2c1ccc(S(N)(=O)=O)cc1` (stereo not given), the Activity turned out to be 80%.

For the compound `C=CCn1c(=S)[nH]c2c(c1=N)C(c1ccc(Cl)cc1Cl)C1=C(CCCC1=O)N2c1ccc(S(N)(=O)=O)cc1` (stereo not given), the Activity is 40%.

A further test can be described thus: Cytotoxicity against mouse EAC cells after 2 hrs by trypan blue exclusion. The format is functional, cell-based. To be noted: ehrlich.
With `Nc1nc(=S)[nH]c2c1C(c1ccc(Cl)cc1Cl)C1=C(CCCC1=O)N2c1ccc(S(N)(=O)=O)cc1` (stereo not given), the 50% inhibitory concentration (IC50) turned out to be 25 µg/mL (≈ 45.6 µM).

On to `N#CC1=C(NC(=S)Nc2ccccc2)N(c2ccc(S(N)(=O)=O)cc2)C2=C(C(=O)CCC2)C1c1ccc(Cl)cc1Cl` (stereo not given), for which the IC50 stood at 25 µg/mL (≈ 40 µM).

On to `N#CC1=C(NC(=S)Nc2ccc(Cl)cc2)N(c2ccc(S(N)(=O)=O)cc2)C2=C(C(=O)CCC2)C1c1ccc(Cl)cc1Cl` (stereo not given), for which the 50% inhibitory concentration (IC50) came out at 40 µg/mL (≈ 60.7 µM).

Compound `N=c1c2c([nH]c(=S)n1-c1ccccc1)N(c1ccc(S(N)(=O)=O)cc1)C1=C(C(=O)CCC1)C2c1ccc(Cl)cc1Cl` (stereo not given) yielded a half-inhibitory concentration (IC50) of 50 µg/mL (≈ 80.1 µM).

The compound `N=c1c2c([nH]c(=S)n1-c1ccc(Br)cc1)N(c1ccc(S(N)(=O)=O)cc1)C1=C(C(=O)CCC1)C2c1ccc(Cl)cc1Cl` (stereo not given) showed an IC50 of 50 µg/mL (≈ 71.1 µM).

`NS(=O)(=O)c1ccc(N2C3=C(C(=O)CCC3)C(c3ccc(Cl)cc3Cl)c3c2[nH]c(=S)[nH]c3=S)cc1` (stereo not given) gave an IC50 of more than 100 µg/mL.

For the compound `N#CC1=C(NC(=O)CCC(=O)O)N(c2ccc(S(N)(=O)=O)cc2)C2=C(C(=O)CCC2)C1c1ccc(Cl)cc1Cl` (stereo not given), the half-inhibitory concentration (IC50) was determined as 50 µg/mL (≈ 84.8 µM).

As to `CCCCNC(=S)NC1=C(C#N)C(c2ccc(Cl)cc2Cl)C2=C(CCCC2=O)N1c1ccc(S(N)(=O)=O)cc1` (stereo not given), the 50% inhibitory concentration (IC50) was more than 100 µg/mL.

In turn, `Nc1nc(=O)[nH]c2c1C(c1ccc(Cl)cc1Cl)C1=C(CCCC1=O)N2c1ccc(S(N)(=O)=O)cc1` (stereo not given) yielded an IC50 of 6.9 µg/mL (≈ 13 µM).

In turn, `C=CCn1c(=S)[nH]c2c(c1=N)C(c1ccc(Cl)cc1Cl)C1=C(CCCC1=O)N2c1ccc(S(N)(=O)=O)cc1` (stereo not given) had an IC50 of 50 µg/mL (≈ 85 µM).

Source of the values: ChEMBL document CHEMBL1154730, “Novel quinolines and pyrimido[4,5-b]quinolines bearing biologically active sulfonamide moiety as a new class of antitumor agents” (Eur J Med Chem, 2010).
